Key:
[1] = in vivo; conditions: nu/nu, mouse, plasma, po, 10 mg/kg
[2] = in vivo; conditions: nu/nu, mouse, po, 10 mg/kg
[3] = in vivo; conditions: nu/nu, mouse, po, 10 mg/kg; remark: listed apart in the source
[4] = in vitro; conditions: human, A375 cells
Description: Toxicity against human A375 cells after 72 hrs by cell titer-blue assay

[5] = biological target: Ephrin type-A receptor 7 (Homo sapiens, UniProt Q15375)
Description: Binding affinity to EPHA7

[6] = system: MV4-11; assay: cells; conditions: Homo sapiens, MV4-11, 72 h
Description: Cytotoxicity against human MV4-11 cells after 72 hrs by cell titer-blue assay

[7] = biological target: T1, Poly [ADP-ribose] polymerase tankyrase-2 (Homo sapiens, UniProt Q9H2K2)
T1 sequence (Q9H2K2 whole entry): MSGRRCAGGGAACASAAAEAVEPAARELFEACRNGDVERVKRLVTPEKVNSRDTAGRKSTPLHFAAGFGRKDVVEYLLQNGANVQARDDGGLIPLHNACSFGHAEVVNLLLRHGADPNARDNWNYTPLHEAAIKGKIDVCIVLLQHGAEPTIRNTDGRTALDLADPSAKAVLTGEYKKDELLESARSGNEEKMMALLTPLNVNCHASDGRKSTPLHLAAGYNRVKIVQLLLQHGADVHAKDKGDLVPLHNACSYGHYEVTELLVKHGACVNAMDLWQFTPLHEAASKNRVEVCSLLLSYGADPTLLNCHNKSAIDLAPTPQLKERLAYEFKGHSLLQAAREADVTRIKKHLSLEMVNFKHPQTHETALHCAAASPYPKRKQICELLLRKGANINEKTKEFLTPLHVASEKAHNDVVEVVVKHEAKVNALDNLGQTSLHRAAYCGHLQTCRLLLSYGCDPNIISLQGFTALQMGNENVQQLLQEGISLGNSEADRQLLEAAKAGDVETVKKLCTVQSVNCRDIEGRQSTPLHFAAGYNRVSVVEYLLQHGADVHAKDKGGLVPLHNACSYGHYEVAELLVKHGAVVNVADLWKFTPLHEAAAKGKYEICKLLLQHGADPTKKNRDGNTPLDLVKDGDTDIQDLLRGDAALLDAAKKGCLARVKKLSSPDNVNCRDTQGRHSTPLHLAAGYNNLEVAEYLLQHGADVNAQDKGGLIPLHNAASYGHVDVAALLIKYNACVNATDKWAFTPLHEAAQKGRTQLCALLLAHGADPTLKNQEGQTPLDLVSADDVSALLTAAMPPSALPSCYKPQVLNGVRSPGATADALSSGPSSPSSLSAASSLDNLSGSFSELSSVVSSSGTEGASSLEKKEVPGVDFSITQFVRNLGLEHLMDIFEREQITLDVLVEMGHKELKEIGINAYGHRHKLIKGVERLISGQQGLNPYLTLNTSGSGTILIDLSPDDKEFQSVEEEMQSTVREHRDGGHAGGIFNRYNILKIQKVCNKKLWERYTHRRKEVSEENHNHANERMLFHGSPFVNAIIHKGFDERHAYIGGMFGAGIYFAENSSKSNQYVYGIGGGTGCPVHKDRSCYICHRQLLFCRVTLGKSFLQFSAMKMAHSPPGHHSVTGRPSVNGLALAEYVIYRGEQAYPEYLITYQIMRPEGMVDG

[8] = in vitro; conditions: mouse, plasma
Description: Plasma protein binding in mouse

Ephrin type-A receptor 7, sequence (Q15375 whole entry): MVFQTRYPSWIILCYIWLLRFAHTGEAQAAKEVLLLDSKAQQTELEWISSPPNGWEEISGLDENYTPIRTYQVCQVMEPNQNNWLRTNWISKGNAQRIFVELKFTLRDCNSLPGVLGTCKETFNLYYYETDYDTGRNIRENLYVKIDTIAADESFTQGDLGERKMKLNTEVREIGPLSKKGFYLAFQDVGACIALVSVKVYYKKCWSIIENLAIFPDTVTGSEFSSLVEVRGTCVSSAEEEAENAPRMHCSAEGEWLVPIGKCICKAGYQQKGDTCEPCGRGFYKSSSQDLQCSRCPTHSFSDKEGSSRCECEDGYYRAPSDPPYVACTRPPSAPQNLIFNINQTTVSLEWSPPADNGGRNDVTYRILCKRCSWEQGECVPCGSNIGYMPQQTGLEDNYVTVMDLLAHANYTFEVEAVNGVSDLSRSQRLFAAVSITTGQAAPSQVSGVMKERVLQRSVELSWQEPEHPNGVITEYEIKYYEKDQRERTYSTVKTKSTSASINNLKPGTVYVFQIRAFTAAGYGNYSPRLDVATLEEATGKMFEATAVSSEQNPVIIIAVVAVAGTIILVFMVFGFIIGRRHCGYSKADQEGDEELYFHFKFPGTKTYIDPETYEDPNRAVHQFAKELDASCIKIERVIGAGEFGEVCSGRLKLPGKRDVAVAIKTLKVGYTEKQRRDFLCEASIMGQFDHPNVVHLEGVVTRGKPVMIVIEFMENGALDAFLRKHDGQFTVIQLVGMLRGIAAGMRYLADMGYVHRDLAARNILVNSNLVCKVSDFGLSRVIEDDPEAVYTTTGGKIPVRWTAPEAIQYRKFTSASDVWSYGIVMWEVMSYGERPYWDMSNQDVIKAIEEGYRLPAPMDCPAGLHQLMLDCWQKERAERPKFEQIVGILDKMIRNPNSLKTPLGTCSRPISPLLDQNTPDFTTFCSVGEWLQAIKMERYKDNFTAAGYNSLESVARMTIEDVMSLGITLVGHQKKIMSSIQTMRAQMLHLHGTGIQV

CO[C@@H]1[C@H](N(C)C(=O)c2ccccc2)C[C@H]2O[C@]1(C)n1c3ccccc3c3c4c(c5c6ccccc6n2c5c31)C(=O)N[C@H]4O [CGP-52421]
AUC(0-t) at 24 h [1]: 8.4 µM·h
Cmax [2]: 2300 nM
Tmax [3]: 40.2 min
IC50 at 72 h [4]: 530 nM
Kd [5]: > 10000 nM
IC50 [6]: 64 nM

COc1cc2c(N3CCN(C(=O)Nc4ccc(OC(C)C)cc4)CC3)ncnc2cc1OCCCN1CCCCC1 [TANDUTINIB]
Kd [7]: > 10000 nM
AUC(0-t) at 24 h [1]: 0.28 µM·h
Cmax [2]: 81 nM
Tmax [3]: 60 min
IC50 at 72 h [4]: > 10000 nM
fraction unbound [8]: 0.02
IC50 [6]: 60 nM

Reference: ChEMBL document CHEMBL1240346, “AC220 is a uniquely potent and selective inhibitor of FLT3 for the treatment of acute myeloid leukemia (AML)” (Blood, 2009)
